Measurements as given in ChEMBL document CHEMBL4834481, “1-Aminomethyl SAR in a novel series of flavagline-inspired eIF4A inhibitors: Effects of amine substitution on cell potency and in vitro PK properties” (Bioorg Med Chem Lett, 2021).

How the values were obtained:
[1] = tested on: MDA-MB-231; assay: Antiproliferative activity against human MDA-MB-231 cells assessed as inhibition of cell viability incubated for 72 hrs by CellTiter-Glo assay; type: functional, cell-based; conditions: MDA-MB-231, 72 h
[2] = Permeability of the compound across apical to basolateral side in human Caco-2 cells; type: ADME, cell-based; conditions: read-out: permeability
[3] = Metabolic stability of the compound in human liver microsomes assessed as parent compound remaining measured after 30 mins; type: ADME, Microsome; conditions: read-out: Stabilty
[4] = tested on: MDA-MB-231; assay: Antiproliferative activity against human MDA-MB-231 cells; type: functional, cell-based
[5] = Efflux ratio of permeability in human Caco-2 cells; type: ADME, cell-based
[6] = Metabolic stability of the compound in mouse liver microsomes assessed as parent compound remaining measured after 30 mins; type: ADME, Microsome; conditions: for remaining at 0.5 h: liver microsomes, read-out: Stabilty
[7] = Metabolic stability of the compound in rat liver microsomes assessed as parent compound remaining measured after 30 mins; type: ADME, Microsome; conditions: read-out: Stabilty
[8] = target: hERG (KCNH2) (Homo sapiens, UniProt Q12809); assay: Inhibition of human ERG at 10 uM by automated patch method relative to control
[9] = target: T1, Eukaryotic initiation factor 4A-I (Homo sapiens, UniProt P60842); assay: Inhibition of eIF4A (unknown origin) assessed as inhibition of translation of RNA featuring short 5'-UTR of tubulin
[10] = target: T1, Eukaryotic initiation factor 4A-I; assay: Inhibition of eIF4A (unknown origin) assessed as inhibition of translation of RNA featuring highly structured 5'-UTR of c-Myc
[11] = species on record: Homo sapiens; assay: Selectivity ratio of IC50 for inhibition of eIF4A (unknown origin) assessed as inhibition of translation of RNA featuring short 5'-UTR of tubulin to IC50 for inhibition of eIF4A (unknown origin) assessed as inhibition of translation of RNA featuring highly structured 5'-UTR of c-Myc

T1 sequence (P60842 whole entry): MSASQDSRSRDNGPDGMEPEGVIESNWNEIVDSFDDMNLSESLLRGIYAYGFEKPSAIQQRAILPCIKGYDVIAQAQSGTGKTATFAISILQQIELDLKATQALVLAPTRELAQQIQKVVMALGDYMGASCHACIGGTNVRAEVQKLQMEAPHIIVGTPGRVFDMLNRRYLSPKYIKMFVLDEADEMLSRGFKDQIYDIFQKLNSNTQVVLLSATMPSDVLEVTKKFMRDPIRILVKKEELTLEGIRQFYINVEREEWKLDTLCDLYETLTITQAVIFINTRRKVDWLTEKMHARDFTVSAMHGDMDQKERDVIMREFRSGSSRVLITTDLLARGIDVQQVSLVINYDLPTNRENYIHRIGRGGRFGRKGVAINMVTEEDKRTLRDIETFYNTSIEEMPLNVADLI
Sequence of hERG (KCNH2) (Q12809 whole entry): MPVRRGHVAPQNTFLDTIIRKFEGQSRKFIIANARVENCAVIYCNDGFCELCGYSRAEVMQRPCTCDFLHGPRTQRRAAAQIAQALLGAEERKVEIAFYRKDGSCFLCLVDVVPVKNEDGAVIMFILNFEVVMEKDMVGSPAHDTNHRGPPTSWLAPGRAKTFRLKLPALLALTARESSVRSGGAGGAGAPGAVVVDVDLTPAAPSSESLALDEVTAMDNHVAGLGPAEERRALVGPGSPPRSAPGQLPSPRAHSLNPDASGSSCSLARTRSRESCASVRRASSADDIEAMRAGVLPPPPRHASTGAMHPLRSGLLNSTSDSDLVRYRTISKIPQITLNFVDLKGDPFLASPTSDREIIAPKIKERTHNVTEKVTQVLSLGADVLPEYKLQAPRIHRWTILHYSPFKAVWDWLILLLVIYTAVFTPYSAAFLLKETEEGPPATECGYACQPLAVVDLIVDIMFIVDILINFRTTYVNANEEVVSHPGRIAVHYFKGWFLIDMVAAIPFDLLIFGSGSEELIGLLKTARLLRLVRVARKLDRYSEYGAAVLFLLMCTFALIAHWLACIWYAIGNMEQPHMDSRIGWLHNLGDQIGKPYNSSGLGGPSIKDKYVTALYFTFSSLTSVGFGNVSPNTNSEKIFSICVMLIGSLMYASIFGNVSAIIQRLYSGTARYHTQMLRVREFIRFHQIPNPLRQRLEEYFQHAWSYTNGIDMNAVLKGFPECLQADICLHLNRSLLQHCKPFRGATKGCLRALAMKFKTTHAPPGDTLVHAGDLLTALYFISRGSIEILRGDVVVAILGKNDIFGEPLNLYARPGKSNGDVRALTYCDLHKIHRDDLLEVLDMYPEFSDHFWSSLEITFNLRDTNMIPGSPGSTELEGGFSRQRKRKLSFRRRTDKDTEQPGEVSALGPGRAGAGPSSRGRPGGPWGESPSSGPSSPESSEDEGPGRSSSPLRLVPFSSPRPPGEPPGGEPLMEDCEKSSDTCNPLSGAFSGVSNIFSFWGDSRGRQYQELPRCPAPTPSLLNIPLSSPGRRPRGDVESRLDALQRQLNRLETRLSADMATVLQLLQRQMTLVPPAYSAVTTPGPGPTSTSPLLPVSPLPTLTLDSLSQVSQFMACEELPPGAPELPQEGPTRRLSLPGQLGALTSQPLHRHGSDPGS

EC50 [1]	IC50 [9]	IC50 [10]	Ratio IC50 [11]	Stabilty ([6]; microsomes, 0.5 h)	SMILES	Papp A→B [2]	remaining at 0.5 h [3]	EC50 [4]	efflux ratio [5]	remaining at 0.5 h [6]	remaining at 0.5 h [7]	inhibition at 10 µM [8]
28 nM	–	–	–	–	N#Cc1ccc([C@@]23Oc4cc(Cl)cnc4[C@]2(O)[C@@H](CN)C[C@H]3c2ccccc2)cc1 (racemic)	–	–	–	–	–	–	–
–	–	–	–	–	COc1cncc2c1[C@]1(O)[C@@H](CN)[C@H](CO)[C@@H](c3ccccc3)[C@]1(c1ccc(C#N)cc1)O2 (racemic)	< 0.07 ×10⁻⁶ cm/s	95%	106 nM	> 4	83%	97%	< 10%
–	–	–	–	–	COc1cncc2c1[C@]1(O)[C@@H](CNCC(F)F)[C@H](CO)[C@@H](c3ccccc3)[C@]1(c1ccc(C#N)cc1)O2 (racemic)	0.82 ×10⁻⁶ cm/s	19%	21 nM	6.7	1%	0%	27%
–	11 nM	2.3 nM	4.8	–	COc1cncc2c1[C@]1(O)[C@@H](CNC3COC3)[C@H](CO)[C@@H](c3ccccc3)[C@]1(c1ccc(Br)cc1)O2 (racemic)	–	–	8 nM	–	–	–	–
–	–	–	–	–	COc1cncc2c1[C@]1(O)[C@@H](CNCc3ccnn3C)[C@H](CO)[C@@H](c3ccccc3)[C@]1(c1ccc(C#N)cc1)O2 (racemic)	0.19 ×10⁻⁶ cm/s	1%	38 nM	76	1%	2%	–
–	21 nM	5 nM	4.2	123%	COc1cncc2c1[C@]1(O)[C@@H](CN)C[C@@H](c3ccccc3)[C@]1(c1ccc(Br)cc1)O2 (racemic)	0.43 ×10⁻⁶ cm/s	99%	15 nM	13	–	58%	–
–	–	–	–	–	COc1cncc2c1[C@]1(O)[C@@H](CN3CCOCC3)[C@H](CO)[C@@H](c3ccccc3)[C@]1(c1ccc(C#N)cc1)O2 (racemic)	2.2 ×10⁻⁶ cm/s	51%	81 nM	7	41%	27%	< 10%
–	–	–	–	–	COc1cncc2c1[C@]1(O)[C@@H](CN3CC4(COC4)C3)[C@H](CO)[C@@H](c3ccccc3)[C@]1(c1ccc(C#N)cc1)O2 (racemic)	0.19 ×10⁻⁶ cm/s	92%	19 nM	86	67%	48%	–
–	22 nM	5.6 nM	3.9	–	COc1cncc2c1[C@]1(O)[C@@H](CN)C[C@@H](c3ccccc3)[C@]1(c1ccc(C#N)cc1)O2 (racemic)	0.13 ×10⁻⁶ cm/s	102%	11 nM	58	108%	85%	54%
–	–	–	–	–	COc1cncc2c1[C@]1(O)[C@@H](CN(C)C)[C@H](CO)[C@@H](c3ccccc3)[C@]1(c1ccc(C#N)cc1)O2 (racemic)	0.4 ×10⁻⁶ cm/s	77%	8 nM	33	67%	61%	79%
–	–	–	–	–	COc1cncc2c1[C@]1(O)[C@@H](CNC3COC3)[C@H](CO)[C@@H](c3ccccc3)[C@]1(c1ccc(C#N)cc1)O2 (racemic)	0.73 ×10⁻⁶ cm/s	61%	29 nM	12	24%	18%	< 10%

SMILES	EC50 [1]	IC50 [9]	IC50 [10]	Ratio IC50 [11]	Stabilty ([6]; microsomes, 0.5 h)	Papp A→B [2]	remaining at 0.5 h [3]	EC50 [4]	efflux ratio [5]	remaining at 0.5 h [6]	remaining at 0.5 h [7]	inhibition at 10 µM [8]
COc1cncc2c1[C@]1(O)[C@@H](CN3CCOCC3)[C@H](CO)[C@@H](c3ccccc3)[C@]1(c1ccc(Br)cc1)O2 (racemic)	–	32 nM	10 nM	3.2	–	–	6%	39 nM	–	1%	0%	12%
COc1cncc2c1[C@]1(O)[C@@H](CN)[C@H](CO)[C@@H](c3ccccc3)[C@]1(c1ccc(Br)cc1)O2 (racemic)	–	89 nM	25 nM	3.6	–	0.04 ×10⁻⁶ cm/s	102%	48 nM	61	107%	95%	37%
